The record followed here is patent US7321027B2, “Small technetium-99m and rhenium labeled agents and methods for imaging tumors” (President and Fellows of Harvard College, priority 2000, dated 2008).

The subject of data set [1] is B16/F0 murine melanoma cells. Briefly: In-vitro tumor-cell uptake, melanoma cells. It counts as cell-based. The following applies: 37° C., B16/F0 cell line. In outline:
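5×10^6 cells in S-MEM were incubated with 1–2 μCi of ^99mTc-complex with intermittent agitation; B16/F0 uptake was run at both 37 °C and 4 °C. At set times, samples were spun through cold FBS and pellet and supernatant were γ-counted. % uptake = cpm(pellet)/[cpm(pellet)+cpm(supernatant)]×100.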

A short description of data set [2]: Determination of lipophilicity and pKa values by HPLC. The data set is classed as physicochemical. The following applies: HPLC method. Here is the method: The physicochemical parameters of the rhenium complexes, i.e. lipophilicity log P, log D(pH 7.4), and pKa (Table 2) were determined using HPLC methods (Braumann, T.; Grimme, L. H. Determination of Hydrophobic Parameters for Pyridazinone Herbicides by Liquid-Liquid Partition and Reversed-Phase High-Performance Liquid Chromatography. J. Chromatogr. 1981, 206, 7-15; Stytli, C.; Theobald, A. E. Determination of Ionization Constants of Radiopharmaceuticals in Mixed Solvents by HPLC. Appl. Radiat. Isot., 1987, 38, 701-708; Johannsen, B.; Scheunemann, M.; Spies, H.; Brust, P.; Wober, J.; Syhre, R.; Pietzsch, H.-J. Technetium(V) and Rhenium(V) Complexes for 5-HT2A Serotonin Receptor Binding: Structure-Affinity Considerations. Nucl. Med. Biol., 1996, 23, 429-438; and Johannsen, B.; Berger, R.; Brust, P.; Pietzsch, H.-J; Scheunemann, M.; Seifert, S.; Spies, H.; Syhre, R. Structural Modification of Receptor-Binding Technetium-99m Complexes in Order to Improve Brain Uptake. Eur. J. Nucl. Med. 1997, 24, 316-319). […] Since log D(pH 7.4) is a composite measure of log P and pKa, the log D(PH 7.4) of Re-Compound B (1.9) is also higher than that of Re-Compound A (1.1). […] With pKa values >9 for complexes Re-Compound C and Re-Compound D, the resulting low log D(PH 7.4) values of −0.5 (Re-Compound C) and 0.7 (Re-Compound D) are not surprising, since the complexes would exist in a protonated form at pH 7.4.
Determination of Lipophilicity and pKa Values. The lipophilicity and pKa values of all complexes were determined using HPLC methods described previously (Stylli, C.; Theobald, A. E. Determination of Ionization Constants of 4 Radiopharmaceuticals in Mixed Solvents by HPLC. Appl. Radiat. Isot., 1987, 38, 701-708; Johannsen, B.; Scheunemann, M.; Spies, H.; Brust, P.; Wober, J.; Syhre, R.; Pietzsch, H.-J. Technetium(V) and Rhenium(V) Complexes for 5-HT2A Serotonin Receptor Binding: Structure-Affinity Considerations. Nucl. Med. Biol., 1996, 23, 429-438; and Johannsen, B.; Berger, R.; Brust, P.; Pietzsch, H.-J.; Scheunemann, M.; Seifert, S.; Spies, H.; Syhre, R. Structural Modification of Receptor-Binding Technetium-99m Complexes in Order to Improve Brain Uptake. Eur. J. Nucl. Med. 1997, 24, 316-319). […] The mobile phase was acetonitrile:phosphate buffer (0.01 M), 3:1, v/v, with the aqueous buffer adjusted to the desired pH between 3 and 11. The capacity factor (k′) was calculated for each determination (Braumann, T.; Grimme, L. H. Determination of Hydrophobic Parameters for Pyridazinone Herbicides by Liquid-Liquid Partition and Reversed-Phase High-Performance Liquid Chromatography. J. Chromatogr. 1981, 206, 7-15; El Tayer, N.; van der Waterbeemd, H.; Testa, B. Lipophilicity Measurements of Protonated Basic Compounds by Reversed-Phase High-Performance Liquid Chromatography. II. Procedure for the Determination of a Lipophilic Index Measured by Reversed-Phase High Performance Liquid Chromatography. J. Chromatogr. 1985, 320, 305-312; and Minick, D. J.; Frenz, J. H.; Patrick, M. A.; Brent, D. A. A Comprehensive Method for Determining Hydrophobicity Constants by Reversed-Phase High-Performance Liquid Chromatography. J. Med. Chem., 1988, 31, 1923-1933) and the partition coefficient at a given pH (D or log D) were calculated from the equation: log D=a log k′+b where the parameters a and b are predetermined using standard amines. The fitted points of inflection from the sigmoidal DHPLC/pH profiles permit calculation of the pKHPLC(Stylli, C.; Theobald, A. E. Determination of Ionization Constants of Radiopharmaceuticals in Mixed Solvents by HPLC. Appl. Radiat. Isot., 1987, 38, 701-708). The aqueous ionization constants pKa were calculated from the pKHPLC values after correction with a predetermined correction factor obtained using standard amine compounds. Log P values of the neutral complexes were estimated from the respective upper plateau of the sigmoidal log D/pH curve in the alkaline range.

Data set [3] relates to MCF-7 human breast cancer cell line. In words: In-vitro tumor-cell uptake, breast cancer cells. The data set is classed as cell-based. Conditions: 37° C., MCF-7 cell line. On the procedure:
In-Vitro Tumor-Uptake Studies. Tumor-cell uptake studies in B16/F0 murine melanoma cells were performed with complexes Tc-(Compound A-D and H-M) at 37° C. and 4° C. Additionally, tumor-cell uptake of complex Tc-(Compound A) was investigated in another rapidly dividing MCF-7 human breast cancer cell line.
In-Vitro Cell Studies. […] After being washed with 12 mL Dulbecco's Phosphate-Buffered Saline (PBS) (Gibco), pH 7.2 (Ca^2+- and Mg^2+-free; g/L KCl, 0.20; KH2PO4, 0.20; NaCl, 8.00; Na2HPO4, 1.15), the cells were counted and resuspended in 8 mL S-MEM (Gibco) (Ca^2+ free, with reduced Mg^2+ content) and stored at 4° C. until use.
For in-vitro tumor-cell accumulation studies, 5×10^6 cells in polypropylene test tubes were incubated at 37° C. or 4° C., with intermittent agitation with 1-2 μCi (5 μL) ^99mTc-complex Tc-(Compound A-D) in a total volume of 350 μL S-MEM. […] Both fractions were counted for radioactivity in a γ-counter (WALLAC, 1480 WIZARD 3″™). The amount of supernatant in the cell pellet was determined to be <1% in separate experiments. The percentage cell uptake of the ^99mTc-complex was calculated as: % uptake=[cpm(pellet)]/[cpm(pellet)+cpm(supernatant)]×100

As a reminder, the log P is a log measure of how a compound divides between an organic and an aqueous phase. Read a low log P as a more hydrophilic compound. By pKa is commonly meant the pH at which an ionisable group is half protonated. Turning to `CCCCN(CCCC)CCN1CC[S][99Tc]2(=[O])[S]CC[N]2C(=O)C1` (centres unmarked) [Tc-(Compound B)], the maximal cell uptake in data set [1] worked out at 12%. Also, in data set [2], the “log P” value turned out to be 3.3, the pKa is recorded as 7.7 and the “log D(pH 7.4)” value came out at 1.9.
With `CCN(CC)CCN1CC[S][99Tc]2(=[O])[S]CC[N]2C(=O)C1` (centres unmarked) [Tc-(Compound A)], the maximum cell uptake in data set [3] was determined as 6%. Also, in data set [1], the maximal cell uptake worked out at 43%. In addition, in data set [2], the pKa is recorded as 7.7 and the “log D(pH 7.4)” value is reported as “≈ 1”.
